SMILES strings stand for the structures.

One test concerns the target T1, PDK1 kinase (Homo sapiens, UniProt O15530).
T1 sequence (O15530 1-556): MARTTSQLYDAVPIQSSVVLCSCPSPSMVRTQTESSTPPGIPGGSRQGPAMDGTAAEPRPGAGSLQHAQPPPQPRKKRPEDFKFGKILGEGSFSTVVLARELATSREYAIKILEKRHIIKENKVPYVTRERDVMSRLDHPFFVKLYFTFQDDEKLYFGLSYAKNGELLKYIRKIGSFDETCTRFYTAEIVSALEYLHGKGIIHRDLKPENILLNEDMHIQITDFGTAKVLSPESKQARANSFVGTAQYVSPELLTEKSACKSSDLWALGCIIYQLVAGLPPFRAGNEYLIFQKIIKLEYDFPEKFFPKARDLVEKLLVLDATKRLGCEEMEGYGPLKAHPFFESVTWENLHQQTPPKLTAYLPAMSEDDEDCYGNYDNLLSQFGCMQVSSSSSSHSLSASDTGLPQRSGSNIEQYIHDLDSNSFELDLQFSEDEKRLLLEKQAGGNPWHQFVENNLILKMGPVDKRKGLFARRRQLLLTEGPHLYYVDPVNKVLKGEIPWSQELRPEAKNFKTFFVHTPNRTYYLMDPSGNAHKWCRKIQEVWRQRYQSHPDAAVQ
Kind of test: PDK1 Kinase Alpha Screen Assay. To be noted: PDK1 Kinase Alpha Screen Assay; read-out: PDK1 IC50. Type of test: biochemical. The gist of the method:
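Biotinylated PDK1-4 peptide (50 nM) phosphorylated by PDK1 with 10 uM ATP in pH 7.5 Tris/MgCl2/DTT buffer, 2.5% DMSO, for 3-18 hours. EDTA stop, then AlphaScreen detection with phospho-(Ser/Thr) PKA substrate antibody and protein A/streptavidin beads after overnight room-temperature development.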

The next test relates to A2780 cells. Put plainly: Cell Proliferation Assay (Cell Titer Glo), A2780. The format is cell-based. To be noted: Homo sapiens; cell proliferation, A2780 cells; read-out: CPEC50 A2780. The gist of the method: (§1)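 Cells seeded at 1000/well, allowed to adhere 3-5 h, then exposed to DMSO-dissolved compounds for 3 days at 37° C., 5% CO2. Medium replaced before Cell Titer Glo addition; luminescence read after 10 min.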

A further test deals with PC3MM cells. Kind of test: Cell Proliferation Assay (Cell Titer Glo), PC3MM. Type of test: cell-based. Conditions: cell proliferation, PC3MM cells; read-out: CPEC50 PC3MM. A digest of the protocol:
as §1

On to `COc1cncc(-c2ccc3cnc(Nc4ccc(S(N)(=O)=O)cc4)nc3c2)c1` [Compound 801, 4-(7-(5-methoxypyridin-3-yl)quinazolin-2-ylamino)benzenesulfonamide], for which the IC50 on PDK1 kinase is less than 5 µM. Besides, the EC50 in the test with A2780 cells and in the test on PC3MM cells was less than 5 µM in each case.
On to `NS(=O)(=O)c1ccc(Nc2ncc3ccc(-c4ccc(C(=O)N5CCOCC5)cc4)cc3n2)cc1` [Compound 802, 4-(7-(4-(morpholine-4-carbonyl)phenyl)quinazolin-2-ylamino)benzenesulfonamide], for which the IC50 on PDK1 kinase is less than 5 µM. Moreover, the EC50 in the test with A2780 cells is 5 to 10 µM; in the test with PC3MM cells, less than 5 µM.
On to `NS(=O)(=O)c1ccc(Nc2ncc3cccc(C(=O)NC4CCCNC4)c3n2)cc1` (stereo not drawn) [Compound 803, N-(piperidin-3-yl)-2-(4-sulfamoylphenylamino)quinazoline-8-carboxamide], for which, on PDK1 kinase, the IC50 is less than 5 µM. For the same molecule, the EC50 was 5 to 10 µM in the test with A2780 cells and less than 5 µM in the test with PC3MM cells.
With `CN(C)[C@@H]1CCN(C(=O)c2cccc3cnc(Nc4ccc(S(N)(=O)=O)cc4)nc23)C1` [Compound 804, (R)-4-(8-(3-(dimethylamino)pyrrolidine-1-carbonyl)quinazolin-2-ylamino)benzenesulfonamide], the IC50 on PDK1 kinase was less than 5 µM. Also, the EC50 in the test on A2780 cells is 5 to 10 µM; in the test with PC3MM cells, less than 5 µM.
In the case of `NS(=O)(=O)c1ccc(Nc2ncc3cccc(C(=O)NC4CCNCC4)c3n2)cc1` [Compound 805, N-(piperidin-4-yl)-2-(4-sulfamoylphenylamino)quinazoline-8-carboxamide], the half-maximal inhibitory concentration (IC50) at PDK1 kinase is less than 5 µM. Further, the values for the EC50 in the test on A2780 cells and in the test on PC3MM cells were 5 to 10 µM and less than 5 µM, respectively.
For `CN(C)[C@H]1CCN(C(=O)c2cccc3cnc(Nc4ccc(S(N)(=O)=O)cc4)nc23)C1` [Compound 806, (S)-4-(8-(3-(dimethylamino)pyrrolidine-1-carbonyl)quinazolin-2-ylamino)benzenesulfonamide], the IC50 at PDK1 kinase is less than 5 µM. Also, the EC50 with A2780 cells is 5 to 10 µM; in the test with PC3MM cells, less than 5 µM.
As to `NS(=O)(=O)c1ccc(Nc2ncc3cccc(C(=O)N[C@H]4CN5CCC4CC5)c3n2)cc1` [Compound 807, (R)-N-(quinuclidin-3-yl)-2-(4-sulfamoylphenylamino)quinazoline-8-carboxamide], at PDK1 kinase, the IC50 lay in the range of 5 to 10 µM. Besides, the EC50 in the test with A2780 cells and in the test with PC3MM cells was 5 to 10 µM each time.
As to `NS(=O)(=O)c1ccc(Nc2ncc3cccc(C(=O)N4CCNC(=O)C4)c3n2)cc1` [Compound 808, 4-(8-(3-oxopiperazine-1-carbonyl)quinazolin-2-ylamino)benzenesulfonamide], the IC50 at PDK1 kinase was less than 5 µM. Moreover, the EC50 in the test on A2780 cells was 5 to 10 µM; in the test with PC3MM cells, less than 5 µM.
In the case of `NS(=O)(=O)c1ccc(Nc2ncc3cccc(C(=O)N[C@@H]4CN5CCC4CC5)c3n2)cc1` [Compound 809, (S)-N-(quinuclidin-3-yl)-2-(4-sulfamoylphenylamino)quinazoline-8-carboxamide], at PDK1 kinase, the IC50 was less than 5 µM. Moreover, the EC50 in the test with A2780 cells was 5 to 10 µM; in the test with PC3MM cells, less than 5 µM.
`O=S(=O)(NCCN1CCCC1)c1cccc(Nc2ncc3cccc(OC4CCNCC4)c3n2)c1` [Compound 811, 3-(8-(piperidin-4-yloxy)quinazolin-2-ylamino)-N-(2-(pyrrolidin-1-yl)ethyl)benzenesulfonamide]: on PDK1 kinase, the IC50 is less than 5 µM. Also, the EC50 is 5 to 10 µM in the test with A2780 cells and less than 5 µM in the test on PC3MM cells.
On to `O=S(=O)(NC1CC1)c1cccc(Nc2ncc3cccc(OC4CCNCC4)c3n2)c1` [Compound 812, N-cyclopropyl-3-(8-(piperidin-4-yloxy)quinazolin-2-ylamino)benzenesulfonamide], for which the IC50 on PDK1 kinase is less than 5 µM. The EC50 in the test with A2780 cells and in the test with PC3MM cells was less than 5 µM throughout.
Regarding `NS(=O)(=O)c1ccc(Nc2ncc3ccc(-c4ccc5cn[nH]c5c4)cc3n2)cc1` [Compound 813, 4-(7-(1H-indazol-6-yl)quinazolin-2-ylamino)benzenesulfonamide], the half-maximal inhibitory concentration (IC50) at PDK1 kinase is less than 5 µM. Moreover, the EC50 in the test on A2780 cells and in the test on PC3MM cells was less than 5 µM each time.
`COc1ncc(-c2ccc3cnc(Nc4ccc(S(N)(=O)=O)cc4)nc3c2)cn1` [Compound 814, 4-(7-(2-methoxypyrimidin-5-yl)quinazolin-2-ylamino)benzenesulfonamide]: at PDK1 kinase, the concentration for half-maximal inhibition (IC50) was less than 5 µM. Also, the EC50 in the test with A2780 cells and with PC3MM cells was less than 5 µM each time.
In the case of `NS(=O)(=O)c1ccc(Nc2ncc3ccc(Nc4ccc5cn[nH]c5c4)cc3n2)cc1` [Compound 815, 4-(7-(1H-indazol-6-ylamino)quinazolin-2-ylamino)benzenesulfonamide], the IC50 at PDK1 kinase is less than 5 µM. In addition, the EC50 with A2780 cells and in the test on PC3MM cells was less than 5 µM throughout.
With `CCN1CCC(Oc2cccc3cnc(Nc4ccc(S(N)(=O)=O)cc4)nc23)CC1` [Compound 817, 4-(8-(1-ethylpiperidin-4-yloxy)quinazolin-2-ylamino)benzenesulfonamide], the IC50 on PDK1 kinase was less than 5 µM. Further, the EC50 in the test with A2780 cells and with PC3MM cells was less than 5 µM each time.
Turning to `CC(C)N1CC(Oc2cccc3cnc(Nc4ccc(S(N)(=O)=O)cc4)nc23)C1` [Compound 818, 4-(8-(1-isopropylazetidin-3-yloxy)quinazolin-2-ylamino)benzenesulfonamide], the IC50 on PDK1 kinase was less than 5 µM. The EC50 with A2780 cells and in the test with PC3MM cells was less than 5 µM throughout.
For `NS(=O)(=O)c1ccc(Nc2ncc3cccc(OC4CNC4)c3n2)cc1` [Compound 819, 4-(8-(azetidin-3-yloxy)quinazolin-2-ylamino)benzenesulfonamide], the IC50 at PDK1 kinase was less than 5 µM. Further, the EC50 is 5 to 10 µM with A2780 cells and less than 5 µM in the test on PC3MM cells.
As for `NS(=O)(=O)c1ccc(Nc2ncc3ccc(C(=O)N4CCCC4)cc3n2)cc1` [Compound 820, 4-(7-(pyrrolidine-1-carbonyl)quinazolin-2-ylamino)benzenesulfonamide], the IC50 at PDK1 kinase is less than 5 µM. In addition, the EC50 in the test on A2780 cells and with PC3MM cells was less than 5 µM throughout.
For the molecule `Nc1ccc(-c2cccc3cnc(Nc4ccc(S(N)(=O)=O)cc4)nc23)cn1` [Compound 821, 4-(8-(6-aminopyridin-3-yl)quinazolin-2-ylamino)benzenesulfonamide], at PDK1 kinase, the IC50 was less than 5 µM. In addition, the EC50 with A2780 cells and in the test on PC3MM cells was less than 5 µM throughout.
For the molecule `CN1CCN(C(=O)c2cccc(-c3cccc4cnc(Nc5ccc(S(N)(=O)=O)cc5)nc34)c2)CC1` [Compound 822, 4-(8-(3-(4-methylpiperazine-1-carbonyl)phenyl)quinazolin-2-ylamino)benzenesulfonamide], the IC50 on PDK1 kinase was less than 5 µM. For the same molecule, the EC50 in the test on A2780 cells and in the test on PC3MM cells was less than 5 µM in each case.
For the molecule `Nc1ncc(-c2cccc3cnc(Nc4ccc(S(N)(=O)=O)cc4)nc23)cn1` [Compound 823, 4-(8-(2-aminopyrimidin-5-yl)quinazolin-2-ylamino)benzenesulfonamide], on PDK1 kinase, the IC50 was less than 5 µM. The EC50 in the test with A2780 cells and in the test with PC3MM cells was less than 5 µM in each case.
On to `CN1CCN(C(=O)c2ccc(-c3cccc4cnc(Nc5ccc(S(N)(=O)=O)cc5)nc34)cc2)CC1` [Compound 824, 4-(8-(4-(4-methylpiperazine-1-carbonyl)phenyl)quinazolin-2-ylamino)benzenesulfonamide], for which the IC50 on PDK1 kinase is less than 5 µM. Further, the EC50 in the test on A2780 cells and in the test with PC3MM cells was less than 5 µM each time.
On to `NS(=O)(=O)c1ccc(Nc2ncc3cccc(-c4ccc(N5CCOCC5)nc4)c3n2)cc1` [Compound 826, 4-(8-(6-morpholinopyridin-3-yl)quinazolin-2-ylamino)benzenesulfonamide], for which the IC50 on PDK1 kinase was less than 5 µM. Further, the EC50 with A2780 cells and in the test with PC3MM cells was less than 5 µM throughout.
`NS(=O)(=O)c1ccc(Nc2ncc3cccc(-c4ccc(N5CCNC(=O)C5)nc4)c3n2)cc1` [Compound 828, 4-(8-(6-(3-oxopiperazin-1-yl)pyridin-3-yl)quinazolin-2-ylamino)benzenesulfonamide]: the IC50 at PDK1 kinase is less than 5 µM. Moreover, the EC50 in the test with A2780 cells and in the test with PC3MM cells was less than 5 µM in each case.
On to `CC(=O)NCCNc1ccc(-c2cccc3cnc(Nc4ccc(S(N)(=O)=O)cc4)nc23)cn1` [Compound 829, N-(2-(5-(2-(4-sulfamoylphenylamino)quinazolin-8-yl)pyridin-2-ylamino)ethyl)acetamide], for which, at PDK1 kinase, the IC50 was less than 5 µM. The EC50 in the test on A2780 cells and in the test with PC3MM cells was less than 5 µM each time.
For the molecule `CC(C)Nc1ccc(-c2cccc3cnc(Nc4ccc(S(N)(=O)=O)cc4)nc23)cn1` [Compound 831, 4-(8-(6-(isopropylamino)pyridin-3-yl)quinazolin-2-ylamino)benzenesulfonamide], the IC50 at PDK1 kinase was less than 5 µM. Besides, the EC50 in the test on A2780 cells and in the test on PC3MM cells was less than 5 µM in each case.

Source of the values: patent US7932262B2 (Novartis AG, priority 2006, dated 2011).
